Reference: paper PMC8381248 (Frontiers in Pharmacology, 2021)
Converted amounts (≈) assume the structure as drawn.

How the values were obtained:
[1] = Metabolic stability in human liver microsomes; details: for T1/2: 0.5 mg/ml microsomal protein, n = 2
Procedure: Then, this incubation plate containing mixed solution and NADPH regeneration system was agitated on a plate shaker at 100 rpm and pre-incubated at 37°C for 5 min. Subsequently, 300 μL of precooled quenching solution was added to each well of another deep-well plate (quench plate), which was cooled on ice. The solution in the incubation plate was transferred into the well of the quench plate as the samples in 0 min before it was mixed with another 20 µL of NADPH regeneration solution in the wells.
The incubation plate was incubated at 37°C for 0, 10, 30, and 90 min. At each time point, 100 μL of the supernatant in the incubation plate was removed from each well, quenched immediately, transferred to the wells of the ice-cold quench plate, and vortexed for 5 min. Additionally, an equal volume of pre-warmed fresh regeneration solution was added to the incubation plate for compensation after every withdrawal. […] Each test was operated in duplicate. The determination conditions of LC-MS/MS are shown in Support Materials (Supplementary Table S4).
The in vitro T1/2 was determined by converting the analyte/IS peak area ratios to percentage of drug remaining using the initial peak (t = 0 min) area ratio values as 100%.

in vitro = details: PAMPA
Procedure: Verapamil and digoxin solutions, used as reference, prepared in the same manner as the test drugs. Tolbutamide dissolved with acetonitrile (200 ng/ml) was used as IS.
The resultant supernatants were determined by LC-MS/MS. The specific assay conditions are shown in Support Materials (Supplementary Table S2).

[2] = Kinetic solubility test in PBS; type: physicochemical; details: phosphate-buffer saline (PBS), aqueous buffer, kinetic from dmso stock; PBS (100 mM, pH 7.4)
Procedure: Internal standard (IS) solutions (propranolol and tolbutamide) were dissolved by acetonitrile (50 ng/ml propranolol + 200 ng/ml tolbutamide).
The sample solutions were analyzed using LC-MS/MS. All the samples (test samples and references) for detection were prepared in duplicate. The conditions for LC-MS/MS are shown in Support Materials (Supplementary Table S1).

[3] = test system: PE-constricted aortic rings; assay: Vasorelaxant effects on isolated PE-constricted aortic rings; set-up: species or system SD rats; details: 10^–6 M PE, n = 6
Procedure: SD rats were anesthetized by exposure to ether, and the thoracic aorta was removed and immersed in Krebs-Henseleit (K-H) buffer ([Lee et al., 2013]) at 4°C. The connective tissues and fats around the aorta were carefully removed under the microscopes, and the blood was flushed. The aorta ring was cut into four sections approximately 3 mm long and suspended in organ chambers containing K-H buffer. The endothelium was also removed by gently rubbing the lumen of the vessel with a cotton swab. The aortic rings were placed in a 5 ml organ chambers of DMT multiwire myograph system (620M, Danish Myo Technology, Denmark) and were filled with K-H buffer aerated with 95% O2 and 5% CO2 at 37°C. The aortic rings were mounted on hooks connected to a tension transducer and a displacement device.
The initial vessel tension was slowly adjusted to 15 mN and maintained balanced for 60 min. The buffer was renewed once every 15 min. After equilibration, the vessel viability was pre-constricted by exposing the aortic rings to 60 mM KCl for 10 min ([Ding et al., 2019]). Then, the K-H buffer was continuously renewed to elute and restore the initial tension of the vascular ring to assay the vascular activity. The pre-treated operation was repeated two times, where the constriction amplitude after each KCl stimulation to reach the previous constriction amplitude was taken as the criterion, before the experiment continued. Subsequently, 10^–6 M PE was added to contract the blood vessel. After the constriction was stable, different concentrations of Ach (10^−9–10^–5 M) were used to dilate the vessels. Then, the vasorelaxation degree could be calculated with different Ach concentrations, as the following equation: Vasorelaxation degree (%)=Maxium constriction tension induced by PE−Minium diastolic tension induced by Ach/Maxium constriction tension induced by PE−Resting tension×100% (10) When the vasorelaxation degree corresponding to Ach (10^–5 M) is greater than 80%, the vascular endothelium is considered intact and functional. The endothelium is considered to be removed with a vasorelaxation degree of less than 20% ([Lee et al., 2013]). Endothelium-intact and endothelium-denuded aortic rings from the same aorta were tested.
After equilibration, the endothelium-intact and the endothelium-denuded aortic rings were pre-constricted with 10^–6 M PE in the K-H buffer system.
After equilibration, the endothelium-intact aortic rings were pre-constricted with 10^–6 M PE in the K-H buffer system. […] Then, the corresponding vasoconstrictive responses were examined and recorded.
In the vasorelaxant effects investigations, all the data are presented as mean ± SEM. Statistical analysis was performed using two-way ANOVA followed by Fisher’s least significant difference (LSD) test. Values at p < 0.05 were considered statistically significant.

Compound: COc1ccc2c(c1)[C@]13CCCC[C@@H]1[C@H](C2)N(C)CC3 [Dextromethorphan, dextromethorphan, reference compound]
- T1/2 ([1]; HLM with NADPH): 63.8 min
- microsomal CLint ([1]; human, microsomes): 21.7 µL/min/mg

Compound: C[C@H]1O[C@@H](O[C@H]2[C@@H](O)C[C@H](O[C@H]3[C@@H](O)C[C@H](O[C@H]4CC[C@@]5(C)[C@H](CC[C@@H]6[C@@H]5C[C@@H](O)[C@]5(C)[C@@H](C7=CC(=O)OC7)CC[C@]65O)C4)O[C@@H]3C)O[C@@H]2C)C[C@H](O)[C@@H]1O [Digoxin, digoxin, reference compound]
- Papp at 18000 s (in vitro): 0.589 ×10⁻⁶ cm/s

Compound: COc1ccc2[nH]c([S+]([O-])Cc3ncc(C)c(OC)c3C)nc2c1 (stereo not drawn) [Omeprazole, omeprazole, reference compound]
- T1/2 ([1]; RLM with NADPH): 15.6 min

Compound: CC(=O)N1CCN(c2ccc(OCC3COC(Cn4ccnc4)(c4ccc(Cl)cc4Cl)O3)cc2)CC1 (stereo not drawn) [ketoconazole, reference compound]
- solubility kinetic [2]: 38.9 ± 1.54 µg/mL (≈ 73.2 µM)

Compound: COC(=O)C1=C(C)NC(C)=C(C(=O)OCCN(C)Cc2ccccc2)C1c1cccc([N+](=O)[O-])c1 (stereo not drawn) [nicardipine, reference compound]
- solubility kinetic [2]: 9.94 ± 0.05 µg/mL (≈ 20.7 µM)

Compound: Pinoresinol [PINL]
- vasorelaxant effect on PE-constricted aortic rings ([3]; increasing concentration 25–200 μM): concentration-dependent vasorelaxation
- vasorelaxation degree, endothelium-denuded versus endothelium-intact group ([3]; PINL difference at 50–100 μM): significantly lower
- vasorelaxant response compared between groups ([3]; endothelium-intact rings, PINL vs PDG at 50 μM, combination vs single at 25, 50 and 100 μM): significantly better than in the PDG group
